Like-named read-outs stand apart in the source and are kept apart here.
How the values were obtained:
[1] = tested on: PC-3 cells; assay: Cell Proliferation Assay (Cell Titer Glo), PC-3 cell line; format: cell-based; conditions: Homo sapiens, read-out: CPEC50 PC3
How it was run: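 PC-3 cells, 1000 cells/well, left to adhere 3-5 h, then exposed for 3 days at 37° C to compounds as 1:3 serial dilutions from 500× DMSO stocks diluted in growth medium. Medium then replaced with fresh medium and viability read by Cell Titer Glo luminescence.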

[2] = molecular target: T1, PDK1 kinase (Homo sapiens, UniProt O15530); assay: PDK1 Kinase Alpha Screen Assay; format: biochemical; conditions: read-out: PDK1 IC50
T1 sequence (O15530 1-556): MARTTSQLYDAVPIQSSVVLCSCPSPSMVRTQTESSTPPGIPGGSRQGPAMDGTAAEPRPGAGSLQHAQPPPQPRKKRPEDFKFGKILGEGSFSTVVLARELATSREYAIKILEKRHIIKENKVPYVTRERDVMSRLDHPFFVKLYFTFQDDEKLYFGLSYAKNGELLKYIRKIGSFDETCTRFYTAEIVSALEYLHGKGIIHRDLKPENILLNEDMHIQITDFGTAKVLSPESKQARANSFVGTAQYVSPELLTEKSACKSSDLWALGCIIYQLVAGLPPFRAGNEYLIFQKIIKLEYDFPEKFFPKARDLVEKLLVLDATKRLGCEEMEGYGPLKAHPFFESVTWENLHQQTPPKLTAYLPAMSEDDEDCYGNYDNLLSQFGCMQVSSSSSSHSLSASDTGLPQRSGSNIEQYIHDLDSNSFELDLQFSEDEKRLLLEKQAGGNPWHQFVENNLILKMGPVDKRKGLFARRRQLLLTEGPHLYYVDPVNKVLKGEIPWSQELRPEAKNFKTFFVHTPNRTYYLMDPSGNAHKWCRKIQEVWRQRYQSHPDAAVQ
How it was run: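 Biotinylated PDK1-4 peptide (50 nM) phosphorylated by PDK1 with 10 uM ATP in pH 7.5 Tris/MgCl2/DTT buffer, 2.5% DMSO, for 3-18 hours. EDTA stop, then AlphaScreen detection with phospho-(Ser/Thr) PKA substrate antibody and protein A/streptavidin beads after overnight room-temperature development.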

[3] = PC-3, Cell Proliferation Assay, PC3 cells

Row | SMILES | EC50 ([1]; PC-3, Cell Proliferation Assay, PC3) [µM] | IC50 ([2]; PDK1 Kinase Alpha Screen Assay) [µM] | EC50 [1, 3] [µM] | EC50 ([1]; PC-3, PC3 cells) [µM] | IC50 [2] [µM]
1 | c1csc(-c2cc(OC3CNC3)c3nc(Nc4ccc(N5CCOCC5)cc4)ncc3c2)n1 [Compound 706, 8-(azetidin-3-yloxy)-N-(4-morpholinophenyl)-6-(thiazol-2-yl)quinazolin-2-amine] | < 5 | < 5 | – | – | –
2 | C#Cc1cc(OC2CNC2)c2nc(Nc3ccc(N4CCOCC4)cc3)ncc2c1 [Compound 707, 8-(azetidin-3-yloxy)-6-ethynyl-N-(4-morpholinophenyl)quinazolin-2-amine] | – | < 5 | < 5 | – | –
3 | C#Cc1cc(OC2CCNCC2)c2nc(Nc3ccc(C(=O)N4CCOCC4)cc3)ncc2c1Cl [Compound 708, (4-(5-chloro-6-ethynyl-8-(piperidin-4-yloxy)quinazolin-2-ylamino)phenyl)(morpholino)methanone] | – | < 5 | < 5 | – | –
4 | CC(C)Cn1cc(-c2ccc3cnc(Nc4ccc(S(=O)(=O)NCCCN5CCCC5)cc4)nc3c2)cn1 [Compound 709, 4-(7-(1-isobutyl-1H-pyrazol-4-yl)quinazolin-2-ylamino)-N-(3-(pyrrolidin-1-yl)propyl)benzenesulfonamide] | – | < 5 | < 5 | – | –
5 | CC(C)Cn1cc(-c2ccc3cnc(Nc4ccc(S(=O)(=O)NCCN5CCOCC5)cc4)nc3c2)cn1 [Compound 710, 44-(7-(1-isobutyl-1H-pyrazol-4-yl)quinazolin-2-ylamino)-N-(2-morpholinoethyl)benzenesulfonamide] | – | < 5 | < 5 | – | –
6 | CC(C)Cn1cc(-c2ccc3cnc(Nc4ccc(S(=O)(=O)NCCN5CCCCC5)cc4)nc3c2)cn1 [Compound 711, 4-(7-(1-isobutyl-1H-pyrazol-4-yl)quinazolin-2-ylamino)-N-(2-(piperidin-1-yl)ethyl)benzenesulfonamide] | – | < 5 | < 5 | – | –
7 | CC(C)Cn1cc(-c2ccc3cnc(Nc4ccc(S(=O)(=O)NCCN5CCN(C)CC5)cc4)nc3c2)cn1 [Compound 712, 4-(7-(1-isobutyl-1H-pyrazol-4-yl)quinazolin-2-ylamino)-N-(2-(4-methylpiperazin-1-yl)ethyl)benzenesulfonamide] | – | < 5 | < 5 | – | –
8 | CC(C)Cn1cc(-c2ccc3cnc(Nc4ccc(S(=O)(=O)NCCN5CCCC5)cc4)nc3c2)cn1 [Compound 713, 4-(7-(1-isobutyl-1H-pyrazol-4-yl)quinazolin-2-ylamino)-N-(2-(pyrrolidin-1-yl)ethyl)benzenesulfonamide] | – | < 5 | < 5 | – | –
9 | C#Cc1cc2cnc(Nc3ccc(S(N)(=O)=O)cc3)nc2cc1OC1CCN(C(C)C)CC1 [Compound 714, 4-(6-ethynyl-7-(1-isopropylpiperidin-4-yloxy)quinazolin-2-ylamino)benzenesulfonamide] | – | < 5 | < 5 | – | –
10 | Cn1cc(-c2cc(Cl)cc3cnc(Nc4ccc(S(N)(=O)=O)cc4)nc23)cn1 [Compound 926, 4-(6-chloro-8-(1-methyl-1H-pyrazol-4-yl)quinazolin-2-ylamino)benzenesulfonamide] | – | – | – | < 5 | < 5
11 | NS(=O)(=O)c1ccc(Nc2ncc3cc(Cl)cc(-c4ccc(NCCN5CCCC5)nc4)c3n2)cc1 [Compound 927, 4-(6-choro-8-(6-(2-(pyrrolidin-1-yl)ethylamino)pyridin-3-yl)quinazolin-2-ylamino)benzenesulfonamide] | – | – | – | < 5 | < 5
12 | Nc1ncc(-c2cccc3cnc(Nc4ccc(S(N)(=O)=O)cc4)nc23)cc1C(F)(F)F [Compound 929, 4-(8-(6-amino-5-(trifluoromethyl)pyridin-3-yl)quinazolin-2-ylamino)benzenesulfonamide] | – | – | – | < 5 | < 5
13 | Nc1cc(C(F)(F)F)c(-c2cccc3cnc(Nc4ccc(S(N)(=O)=O)cc4)nc23)cn1 [Compound 930, 4-(8-(6-amino-4-(trifluoromethyl)pyridin-3-yl)quinazolin-2-ylamino)benzenesulfonamide] | – | – | – | < 5 | < 5

The next lines start with the values.

Row | EC50 ([1]; PC-3, Cell Proliferation Assay, PC3) [µM] | IC50 ([2]; PDK1 Kinase Alpha Screen Assay) [µM] | EC50 [1, 3] [µM] | EC50 ([1]; PC-3, PC3 cells) [µM] | IC50 [2] [µM] | SMILES
14 | – | – | – | 5 to 10 | < 5 | Cn1cc(-c2cccc3cnc(Nc4ccc(S(N)(=O)=O)cc4)nc23)cn1 [Compound 931, 4-(8-(1-methyl-1H-pyrazol-4-yl)quinazolin-2-ylamino)benzenesulfonamide]
15 | – | – | – | 5 to 10 | < 5 | NS(=O)(=O)c1ccc(Nc2ncc3cccc(CNCCN4CCCC4)c3n2)cc1 [Compound 935, 4-(8-((2-(pyrrolidin-1-yl)ethylamino)methyl)quinazolin-2-ylamino)benzenesulfonamide]
16 | – | – | – | < 5 | < 5 | CN(C)[C@H]1CCN(Cc2cccc3cnc(Nc4ccc(S(N)(=O)=O)cc4)nc23)C1 [Compound 936, (S)-4-(8-((3-(dimethylamino)pyrrolidin-1-yl)methyl)quinazolin-2-ylamino)benzenesulfonamide]
17 | – | – | – | 5 to 10 | < 5 | CN1CCC(NCc2cccc3cnc(Nc4ccc(S(N)(=O)=O)cc4)nc23)CC1 [Compound 937, 4-(8-((1-methylpiperidin-4-ylamino)methyl)quinazolin-2-ylamino)benzenesulfonamide]
18 | – | – | – | 5 to 10 | < 5 | CN(C)[C@@H]1CCN(Cc2cccc3cnc(Nc4ccc(S(N)(=O)=O)cc4)nc23)C1 [Compound 938, (R)-4-(8-((3-(dimethylamino)pyrrolidin-1-yl)methyl)quinazolin-2-ylamino)benzenesulfonamide]
19 | – | – | – | < 5 | < 5 | Cc1ccc(-c2ccc3cnc(Nc4ccc(S(N)(=O)=O)cc4)nc3c2)c(F)n1 [Compound 939, 4-(7-(2-fluoro-6-methylpyridin-3-yl)quinazolin-2-ylamino)benzenesulfonamide]
20 | – | – | – | 5 to 10 | < 5 | CC(C)N1CCC(c2c(O)ccc3cnc(Nc4ccc(F)cc4)nc23)CC1 [Compound 940, 2-(4-fluorophenylamino)-8-(1-isopropylpiperidin-4-yl)quinazolin-7-ol]
21 | – | – | – | < 5 | < 5 | NS(=O)(=O)c1ccc(Nc2ncc3cccc(-c4cncc(CN5CCCC5)c4)c3n2)cc1 [Compound 941, 4-(8-(5-(pyrrolidin-1-ylmethyl)pyridin-3-yl)quinazolin-2-ylamino)benzenesulfonamide]
22 | – | – | – | < 5 | < 5 | NS(=O)(=O)c1ccc(Nc2ncc3cccc(-c4cncc(CN5CCOCC5)c4)c3n2)cc1 [Compound 942, 4-(8-(5-(morpholinomethyl)pyridin-3-yl)quinazolin-2-ylamino)benzenesulfonamide]
23 | – | – | – | < 5 | < 5 | CN1CCN(Cc2cncc(-c3cccc4cnc(Nc5ccc(S(N)(=O)=O)cc5)nc34)c2)CC1 [Compound 943, 4-(8-(5-((4-methylpiperazin-1-yl)methyl)pyridin-3-yl)quinazolin-2-ylamino)benzenesulfonamide]
24 | – | – | – | 5 to 10 | < 5 | NS(=O)(=O)c1ccc(Nc2ncc3cccc(-c4cncc(CN5CCNC(=O)C5)c4)c3n2)cc1 [Compound 944, 4-(8-(5-((3-oxopiperazin-1-yl)methyl)pyridin-3-yl)quinazolin-2-ylamino)benzenesulfonamide]
25 | – | – | – | < 5 | < 5 | Cn1cc(-c2ccc3cnc(Nc4ccc(S(N)(=O)=O)cc4)nc3c2-c2ccc(NCCN3CCCC3)nc2)cn1 [Compound 945, 4-(7-(1-methyl-1H-pyrazol-4-yl)-8-(6-(2-(pyrrolidin-1-yl)ethylamino)pyridin-3-yl)quinazolin-2-ylamino)benzenesulfonamide]
26 | – | – | – | < 5 | < 5 | CC(C)NCc1cncc(-c2cccc3cnc(Nc4ccc(S(N)(=O)=O)cc4)nc23)c1 [Compound 946, 4-(8-(5-((isopropylamino)methyl)pyridin-3-yl)quinazolin-2-ylamino)benzenesulfonamide]
27 | – | – | – | 5 to 10 | < 5 | NC(=O)C1CCN(Cc2cncc(-c3cccc4cnc(Nc5ccc(S(N)(=O)=O)cc5)nc34)c2)CC1 [Compound 947, 1-((5-(2-(4-sulfamoylphenylamino)quinazolin-8-yl)pyridin-3-yl)methyl)piperidine-4-carboxamide]
28 | – | – | – | < 5 | < 5 | NS(=O)(=O)c1ccc(Nc2ncc3cccc(-c4cncc(CNC5CCOCC5)c4)c3n2)cc1 [Compound 948, 4-(8-(5-((tetrahydro-2H-pyran-4-ylamino)methyl)pyridin-3-yl)quinazolin-2-ylamino)benzenesulfonamide]
29 | – | – | – | 5 to 10 | < 5 | CC(=O)N1CCN(Cc2cncc(-c3cccc4cnc(Nc5ccc(S(N)(=O)=O)cc5)nc34)c2)CC1 [Compound 949, 4-(8-(5-((4-acetylpiperazin-1-yl)methyl)pyridin-3-yl)quinazolin-2-ylamino)benzenesulfonamide]

— patent US7932262B2 (Novartis AG, priority 2006, dated 2011)
